Measured values reported in patent publication US20110039289A1, “FLUOROGENIC PEPTIDES AND THEIR METHOD OF PRODUCTION” (priority 2008, published 2011).

Columns and labels:
[1] = Fluorescence lifetime by time correlated single photon counting; settings: 2-aminoacridone attached directly to the α-carboxylic acid group
Protocol: The fluorescence lifetimes of the synthesised peptides recorded above were measured by time correlated single photon counting. Peptides were dissolved in aqueous buffer solutions and excited at 405 nm using a pulsed solid state laser diode (Picoquant LDH-405). Fluorescent emission was filtered through a narrow bandpass interference filter (480/20 nm) and single photons were detected by a photomultiplier tube detector (Hamamatsu R7400P) and counted using a fast timing board with histogramming memory (Ortec 9353).

caspase 3 enzyme = target: T1, caspase 3 enzyme (Homo sapiens, UniProt P42574); assay: Cleavage of fluorogenic peptides by caspase 3 (Example 3, FIG. 1); type: biochemical; settings: 1 mM Zn2+
T1 sequence (P42574 29-175 limits assumed): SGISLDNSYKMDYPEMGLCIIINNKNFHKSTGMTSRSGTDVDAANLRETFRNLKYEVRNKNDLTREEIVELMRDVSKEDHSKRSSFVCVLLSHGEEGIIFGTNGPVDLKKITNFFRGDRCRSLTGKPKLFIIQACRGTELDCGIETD
T1 sequence (P42574 176-277 limits assumed): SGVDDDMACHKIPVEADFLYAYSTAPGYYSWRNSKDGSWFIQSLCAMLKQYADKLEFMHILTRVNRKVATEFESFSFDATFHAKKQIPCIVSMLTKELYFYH
Text: Caspase 3 cleaves WSDEVD-(2aa2) and WSDEVD-(2aa6) at the second aspartic acid residue.
PT14 peptide is WSDEVD-PT14, a conventionally labeled peptide, where PT14 is the Puretime 14 moiety. PT14 peptide is also known as peptide 10, but is not made in accordance with the method of the present invention. Puretime 14 is available from AssayMetrics Limited, Cardiff, UK.

Row | Compound | fluorescence lifetime of adducts of 2-aminoacridone [1] | effect on the action of caspase 3 enzyme (caspase 3 enzyme)
1 | CC(=O)N[C@@H](C)C(=O)Nc1ccc2[nH]c3ccccc3c(=O)c2c1 | 18.1 nanoseconds | –
2 | zinc ions [reference compound] | – | inhibited the action of the enzyme
3 | CC(=O)N[C@@H](Cc1c[nH]c2ccccc12)C(=O)Nc1ccc2[nH]c3ccccc3c(=O)c2c1 | 3.0 nanoseconds | –
4 | CC(=O)N[C@@H](Cc1ccc(O)cc1)C(=O)Nc1ccc2[nH]c3ccccc3c(=O)c2c1 | 9.4 nanoseconds | –
